Active and inactive are the calls of the source. The calls are words filed in the database; no cut-off is given here.
Key:
[1] = (§1) Cytotoxicity against mouse RAW264.7 cells assessed as cell survival after 20 hrs by SRB assay; type: cell-based; details: RAW264.7 cells, read-out: Survival
RAW264.7 [2] = assay: Antiinflammatory activity in mouse RAW264.7 cells assessed as inhibition of LPS-induced nitric oxide production incubated for 15 mins prior to LPS challenge measured after 20 hrs by Griess assay; type: functional, cell-based
RAW264.7 [3] = assay: Antiinflammatory activity in mouse RAW264.7 cells assessed as inhibition of LPS-induced nitric oxide production at 50 uM incubated for 15 mins prior to LPS challenge measured after 20 hrs by Griess assay relative to control; type: functional
RAW264.7 [4] = assay: as §1; type: cell-based; details: raw264.7, 20 h
[5] = target: T1, MAP kinase p38 (Mus musculus) (UniProt P47811+O08911+Q9WUI1+Q9Z1B7); assay: Inhibition of p38 phosphorylation in LPS-stimulated mouse RAW264.7 cells at 16.7 uM incubated for 15 mins prior to LPS stimulation measured after 15 mins by Western blot analysis; type: cell-based
RAW264.7 [6] = assay: Activation of NF-kappaB in mouse RAW264.7 cells assessed as inhibition of LPS-induced IkappaB degradation at 1.9 to 16.7 uM incubated for 15 mins prior to LPS stimulation measured after 15 mins by Western blot analysis; type: cell-based
RAW264.7 [7] = assay: Effect on JNK phosphorylation in LPS-stimulated mouse RAW264.7 cells at 1.9 to 16.7 uM incubated for 15 mins prior to LPS stimulation measured after 15 mins by Western blot analysis; type: cell-based
RAW264.7 [8] = assay: Effect on ERK phosphorylation in LPS-stimulated mouse RAW264.7 cells at 1.9 to 16.7 uM incubated for 15 mins prior to LPS stimulation measured after 15 mins by Western blot analysis; type: cell-based
[9] = target: T1, MAP kinase p38 (Mus musculus); assay: Inhibition of p38 phosphorylation in LPS-stimulated mouse RAW264.7 cells incubated for 15 mins prior to LPS stimulation measured after 15 mins by Western blot analysis; type: cell-based
RAW264.7 [10] = assay: Downregulation of iNOS mRNA expression in LPS-stimulated mouse RAW264.7 cells at 16.7 uM incubated for 15 mins prior to LPS stimulation measured after 6 hrs by qRT-PCR analysis (reference value: 503.95 no unit); type: functional
RAW264.7 [11] = assay: Downregulation of iNOS mRNA expression in LPS-stimulated mouse RAW264.7 cells at 5.6 uM incubated for 15 mins prior to LPS stimulation measured after 6 hrs by qRT-PCR analysis (reference value: 503.95 no unit); type: functional
RAW264.7 [12] = assay: Downregulation of iNOS mRNA expression in LPS-stimulated mouse RAW264.7 cells at 1.9 uM incubated for 15 mins prior to LPS stimulation measured after 6 hrs by qRT-PCR analysis (reference value: 503.95 no unit); type: functional
RAW264.7 [13] = assay: Downregulation of iNOS mRNA expression in LPS-stimulated mouse RAW264.7 cells at 16.7 uM incubated for 15 mins prior to LPS stimulation measured after 6 hrs by qRT-PCR analysis relative to vehicle-treated control; type: functional
RAW264.7 [14] = assay: Downregulation of iNOS mRNA expression in LPS-stimulated mouse RAW264.7 cells incubated for 15 mins prior to LPS stimulation measured after 6 hrs by qRT-PCR analysis; type: functional, cell-based
RAW264.7 [15] = assay: Downregulation of iNOS protein expression in LPS-stimulated mouse RAW264.7 cells incubated for 15 mins prior to LPS stimulation measured after 20 hrs by Western blot analysis; type: functional, cell-based

Row | Compound | viability at 20 h [1] [%] | IC50 (RAW264.7 [2]) [µM] | inhibition at 50 µM (RAW264.7 [3]) [%] | Activity (RAW264.7 [4]) | also measured
1 | C/C=C(\C)c1cc(O)c(C)c2c1Oc1cc(O)c(Cl)c(C)c1C(=O)O2 | > 80 | 36.1 | ≥ 80 |  | 
2 | C/C=C(\C)c1c(Br)c(O)c(C)c2c1Oc1cc(O)c(Br)c(C)c1C(=O)O2 |  | 23.7 | ≥ 80 | Toxic | 
3 | CC[C@@H](C)C[C@]1(C)C=C/C(=C2/C(=O)O[C@H](CC(=O)OC)C2=O)O1 |  | 6.82 | ≥ 80 | Toxic | 
4 | Cc1cc(O)c2c(c1O)C(=O)c1cc(O)cc(O)c1C2=O [CATENARIN] | > 80 | 41.3 | ≥ 80 |  | 
5 | CNC(=N)NCCC[C@H](N)C(=O)O [TILARGININE] |  | 21.7 |  |  | 
6 | C/C=C/C1=CC=C/C(=C2\C(=O)CNC2=O)O1 [VERMELHOTIN] | > 80 | 5.35 | ≥ 80 |  | inhibition [5]: Active; Activity (RAW264.7 [6]): Active; Activity (RAW264.7 [7]): inactive; Activity (RAW264.7 [8]): inactive; inhibition [9]: Dose-dependent effect; fold change (FC) (RAW264.7 [10]): 13.72; fold change (FC) (RAW264.7 [11]): 144.02; fold change (FC) (RAW264.7 [12]): 203.39; inhibition at 16.7 µM (RAW264.7 [13]): > 95%; inhibition (RAW264.7 [14]): Dose-dependent effect; inhibition (RAW264.7 [15]): Dose-dependent effect

From ChEMBL document CHEMBL2424564, “Vermelhotin, an anti-inflammatory agent, suppresses nitric oxide production in RAW 264.7 cells via p38 inhibition” (J Nat Prod, 2013)
